Experimental data published in US9073961B2, “Substitution derivatives of N6 -benzyladenosine-5′-monophosphate, methods of preparation thereof, use thereof as medicaments, and therapeutic preparations containing these compounds” (UNIVERZITA PALACKEHO V OLOMOUCI, priority 2010, dated 2015).

Columns and labels:
[1] = system: Human lymphocytes; assay: Immunosuppressive activity, 3H-thymidine incorporation in concanavalin A activated lymphocytes; assay type: cell-based; details: 72 hours, [3H]-TdR incorporation, read-out: Human lymphocytes ED50
Description: One of the most important parameters of specific cellular immunity is the proliferative response of lymphocytes to antigens or polyclonal mitogens. The majority of normal mammalian peripheral lymphocytes comprise resting cells. Antigens or nonspecific polyclonal mitogens have the capacity to activate lymphoid cells and this is accompanied by dramatic changes of intracellular metabolism (mitochondrial activity, protein synthesis, nucleic acids synthesis, formation of blastic cells and cellular proliferation). […] Variety of in vitro assays was developed to measure proliferative response of lymphocytes. The most commonly used is ^3H-thymidine incorporation method.
During cell proliferation, DNA has to be replicated before the cell is divided into two daughter cells. This close association between cell doublings and DNA synthesis is very attractive for assessing cell proliferation. If labelled DNA precursors are added to the cell culture, cells that are about to divide incorporate the labelled nucleotide into their DNA. Traditionally, those assays usually involve the use of radiolabelled nucleosides, particularly tritiated thymidine ([^3H]-TdR). The amount of [^3H]-TdR incorporated into the cellular DNA is quantified by liquid scintillation counting.
Human heparinized peripheral blood was obtained from healthy volunteers by cubital vein punction. The blood was diluted in PBS (1:3) and mononuclear cells were separated by centrifugation in Ficoll-Hypaque density gradient (Pharmacia, 1.077 g/ml) at 2200 rpm for 30 minutes. Following centrifugation, lymphocytes were washed in PBS and resuspended in cell culture medium (RMPI 1640, 2 mM glutamine, 100 U/ml penicillin, 100 μg/ml streptomycin, 10% fetal calf serum and sodium bicarbonate).
The cells were diluted at target density of 1.100.000 cells/ml and were added by pipette (180 μl) into 96-well microtiter plates. Four-fold dilutions of the intended test concentration were added at time zero in 20 μl aliquots to the microtiter plate wells. Usually, test compound was evaluated at six 4-fold dilutions. In routine testing, the highest well concentration was 266.7 μM. All drug concentrations were examined in duplicates. All wells with exception of unstimulated controls were activated with 50 μl of concanavalin A (25 μg/ml). Incubations of cells with test compounds lasted for 72 hours at 37° C., in 5% CO2 atmosphere and 100% humidity. At the end of incubation period, the cells were assayed by using the [^3H]-TdR:
Cell cultures were incubated with 0.5 μCi (20 μl of stock solution 500 μCi/ml) per well for 6 hours at 37° C. and 5% CO2. The automated cell harvester was used to lyse cells in water and adsorb the DNA onto glass-fiber filters in the format of microtiter plate. The DNA incorporated [^3H]-TdR was retained on the filter while unincorporated material passes through. The filters were dried at room temperature overnight, sealed into a sample bag with 10-12 ml of scintillant. The amount of [^3H]-TdR present in each filter (in cpm) was determined by scintillation counting in a Betaplate liquid scintillation counter. The effective dose of immunosuppressant (ED) was calculated using the following equation: ED=(CCPMdrug exposed well/mean CCPMcontrol wells)×100%. The ED50 value, the drug concentration inhibiting proliferation of 50% of lymphocytes, was calculated from the obtained dose response curves.
To evaluate immunosuppressive activity of substituted adenines, their ability to inhibit polyclonal mitogen induced proliferation of normal human lymphocytes was analyzed (Table 4). […] Effective immunosuppressive dose of new derivatives under in vitro conditions was close to 10-40 μM.

[2] = system: cytokinin-dependent tobacco callus Nicotiana tabacum L. cv. Wisconsin 38; assay: Growth of cytokinin-dependent tobacco callus; assay type: cell-based; details: for Activity (%) [10^−5 mol · l^−1 KR = 100%]: at concentration with highest activity, relative to control cytokinin; for Concentration with highest activity: tobacco callus fresh weight after four weeks
Protocol: Cytokinin effect of newly prepared derivatives was tested using cytokinin-dependent tobacco callus. The cytokinin-dependent tobacco callus Nicotiana tabacum L. cv. Wisconsin 38 was maintained at 25° C. in darkness on modified MS medium, containing per 1 liter: 4 μmol of nicotinic acid, 2.4 μmol of pyridoxine hydrochloride, 1.2 μmol of thiamine, 26.6 μmol of glycine, 1.37 μmol of glutamine, 1.8 μmol of myo-inositol, 30 g of sucrose, 8 g of agar, 5.37 μmol of NAA and 0.5 μmol of the compound tested. Subcultivation was carried out every three weeks. Fourteen days before the bioassay, the callus tissue was transferred to the media without 6-benzylaminopurine. The biological activity was determined from the increase of the fresh callus weight after four weeks of cultivation. Five replicates were prepared for each concentration of the compound tested and the entire test was repeated twice. […] The compounds to be tested were dissolved in dimethylsulfoxide (DMSO) and the solution brought up to 10^−3 M with distilled water. […] The stimulatory activity was calculated from the dose-dependent fresh weight callus growth curves.
From the obtained data, the concentration with the highest activity was selected for each compound tested. Relative activity of the compound at this concentration was calculated (Table 5). […]

[3] = system: HL-60 (promyelocytic leukemia); assay: Calcein AM cytotoxicity assay, HL60; assay type: cell-based, human; details: 72 hours incubation
Description: (§1) Because toxic compounds negatively influence metabolic processes in cells, many standard cytotoxicity assays are based on measurement of metabolisation rate of various artificial substrates. Resulting product is then quantified e.g. by means of spectrometry. The assays can be easily modified for use in 96-well plates. For evaluation of cytotoxic effect of the novel substituted 9-substituted cytokinin derivatives of this invention, a microtiter assay based on quantification of metabolisation of Calcein AM was used. The assay is widely used in drug screening programs and in chemosensitivity testing. In the living cells, Calcein AM is enzymatically hydrolysed and accumulation of resulting calcein is manifested by green fluorescence.
(§2) In the routine screening the following cell lines have been used: CEM (T-lymphoblastoid leukemia), HL-60 (promyelocytic leukemia), K-562 (human erythroleukemia), MCF-7 (breast carcinoma), HOS (human osteogenic sarcoma), and G-361 (human malignant melanoma). Normal human fibroblasts BJ were used as a control for routine screening of the compounds. The cells were kept in Nunc/Corning 80 cm^2 plastic bottles and grown in cell culture medium (DMEM containing 5 g/l glucose, 2 mM glutamine, 100 U/ml penicilline, 100 μg/ml streptomycine, 10% fetal bovine serum and sodium hydrogencarbonate), the compounds were prepared according to the procedure of the present invention.
(§3) The cell suspensions were prepared and diluted according to the particular cell type and the expected target cell density (2.500-30.000 cells per well based on cell growth characteristics) and pippetted (80 μl) into 96-well plates. Inoculates were allowed a pre-incubation period of 24 hours at 37° C. and 5% CO2 for stabilisation. Tested compound was added in total volume of 20 μl of water at time zero. Usually, test compound was evaluated at six 3-fold dilutions. In routine testing, the highest concentration tested was 166.7 μM. All drug concentrations were tested in triplicates. Incubations of cells with the test compounds lasted for 72 hours at 37° C., in 5% CO2 atmosphere and 100% humidity. At the end of incubation period Calcein AM in PBS was added into final concentration of 1 μg/ml. After another 1 hour of incubation fluorescence (FD) was measured with the Labsystem FIA Reader Fluoroscan Ascent (Microsystems). Tumor cell survival (TCS) was estimated using the following equation: […]=(FDdrug exposed well/FDcontrol well)×100%. The GI50 value, the drug concentration causing 50% reduction of esterase activity, was calculated from the obtained dose response curves (FIG. 1).
(§4) Cytoxicity of novel compounds was tested on panel of cell lines of different histogenetic and species origin (Table 3). […] The effective novel derivatives killed tumour cells in concentrations close to 0.1-50 μM.

[4] = system: CEM (T-lymphoblastoid leukemia); assay: Calcein AM cytotoxicity assay, CEM; assay type: cell-based; details: 72 hours incubation, Calcein AM
Description: as §1, §2, §3, §4

[5] = system: K-562 (human erythroleukemia); assay: Calcein AM cytotoxicity assay, K-562; assay type: cell-based; details: 72 hours incubation
Description: as §1, §2, §3, §4

[6] = system: HOS (human osteogenic sarcoma); assay: Calcein AM cytotoxicity assay, HOS; assay type: cell-based; details: 72 hours incubation
Description: as §1, §2, §3, §4

[7] = system: MCF-7 (breast carcinoma); assay: Calcein AM cytotoxicity assay, MCF7; assay type: cell-based; details: 72 hours incubation
Description: as §1, §2, §3, §4

[8] = system: G-361 (human malignant melanoma); assay: Calcein AM cytotoxicity assay, G-361; assay type: cell-based; details: 72 hours incubation
Description: as §1, §2, §3, §4

[9] = system: Normal human fibroblasts BJ; assay: Calcein AM cytotoxicity assay, BJ; assay type: cell-based; details: 72 hours incubation
Description: as §1, §2, §3, §4

SMILES	EC50 [1]	Activity (%) [10^−5 mol · l^−1 KR = 100%] [2]	Concentration with highest activity [2]	GI50 [3]	GI50 [4]	GI50 [5]	GI50 [6]	GI50 [7]	GI50 [8]	GI50 [9]
COc1ccc(O)c(CNc2ncnc3c2ncn3[C@@H]2O[C@H](COP(=O)(O)O)[C@@H](O)[C@H]2O)c1 [Compound 29, 6-(2-hydroxy-5-methoxybenzylamino)purine riboside-5′-monophosphate]	–	–	–	0.54 µM	0.9 µM	15.4 µM	6.4 µM	21 µM	12.3 µM	87.9 µM
O=P(O)(O)OC[C@H]1O[C@@H](n2cnc3c(NCc4cccc(Cl)c4)ncnc32)[C@H](O)[C@@H]1O [Compound 5, 6-(3-chlorobenzylamino)purine riboside-5′-monophosphate]	3.2 µM	109 ± 5%	10^−5 mol · l^−1	0.75 µM	1.6 µM	30.4 µM	> 167 µM	> 167 µM	–	> 167 µM
C/C(=C\CNc1ncnc2c1ncn2[C@@H]1O[C@H](CO)[C@@H](O)[C@H]1O)CO [zeatin riboside, reference compound]	–	–	–	> 167 µM	> 167 µM	> 167 µM	> 167 µM	> 167 µM	> 167 µM	> 167 µM
COc1ccc(CNc2ncnc3c2ncn3[C@@H]2O[C@H](COP(=O)(O)O)[C@@H](O)[C@H]2O)c(O)c1 [2-hydroxy-4-methoxybenzylamino, 6-(2-hydroxy-4-methoxybenzylamino)purine riboside-5′-monophosphate]	2.1 µM	–	–	–	–	–	–	–	–	–
O=P(O)(O)OC[C@H]1O[C@@H](n2cnc3c(NCc4ccccc4Cl)ncnc32)[C@H](O)[C@@H]1O [Compound 4, 6-(2-chlorobenzylamino)purine riboside-5′-monophosphate]	8.7 µM	121 ± 4%	10^−6 mol · l^−1	1.6 µM	14.5 µM	64 µM	> 167 µM	> 167 µM	–	> 167 µM
Cc1cccc(CNc2ncnc3c2ncn3[C@@H]2O[C@H](COP(=O)(O)O)[C@@H](O)[C@H]2O)c1 [Compound 13, 6-(3-methylbenzylamino)purine riboside-5′-monophosphate]	7.5 µM	–	–	6.4 µM	19.1 µM	> 167 µM	> 167 µM	> 167 µM	–	> 167 µM

The next lines start with results.

EC50 [1]	SMILES	Activity (%) [10^−5 mol · l^−1 KR = 100%] [2]	Concentration with highest activity [2]	GI50 [3]	GI50 [4]	GI50 [5]	GI50 [6]	GI50 [7]	GI50 [8]	GI50 [9]
6.3 µM	O=P(O)(O)OC[C@H]1O[C@@H](n2cnc3c(NCc4ccccc4F)ncnc32)[C@H](O)[C@@H]1O [Compound 1, 6-(2-fluorobenzylamino)purine riboside-5′-monophosphate]	100 ± 9%	10^−6 mol · l^−1	3.2 µM	4.6 µM	33.2 µM	> 167 µM	> 167 µM	–	–
9.4 µM	O=P(O)(O)OC[C@H]1O[C@@H](n2cnc3c(NCc4ccc(O)c(O)c4)ncnc32)[C@H](O)[C@@H]1O [3,4-dihydroxybenzylamino, 6-(3,4-dihydroxybenzylamino)purine riboside-5′-monophosphate]	–	–	–	–	–	–	–	–	–
7.3 µM	Cc1ccccc1CNc1ncnc2c1ncn2[C@@H]1O[C@H](COP(=O)(O)O)[C@@H](O)[C@H]1O [Compound 12, 6-(2-methylbenzylamino)purine riboside-5′-monophosphate]	108 ± 4%	10^−6 mol · l^−1	3.3 µM	14 µM	> 167 µM	> 167 µM	> 167 µM	–	> 167 µM
13.4 µM	O=P(O)(O)OC[C@H]1O[C@@H](n2cnc3c(NCc4ccc(F)cc4)ncnc32)[C@H](O)[C@@H]1O [Compound 3, 6-(4-fluorobenzylamino)purine riboside-5′-monophosphate]	–	–	0.86 µM	1.5 µM	6.4 µM	20 µM	14 µM	–	> 167 µM
3.2 µM	O=P(O)(O)OC[C@H]1O[C@@H](n2cnc3c(NCc4cccc(Cl)c4O)ncnc32)[C@H](O)[C@@H]1O [2-hydroxy-3-chlorobenzylamino, 6-(2-hydroxy-3-chlorobenzylamino)purine ribo side-5′-monophosphate]	–	–	–	–	–	–	–	–	–
3.3 µM	O=P(O)(O)OC[C@H]1O[C@@H](n2cnc3c(NCc4ccc(Cl)cc4)ncnc32)[C@H](O)[C@@H]1O [Compound 6, 6-(4-chlorobenzylamino)purine riboside-5′-monophosphate]	–	–	5.3 µM	6.5 µM	16.1 µM	> 167 µM	> 167 µM	–	> 167 µM
